Results published in patent US7928098B2, “Therapeutic and/or preventive agents for a sleep disorder” (Kyowa Hakko Kirin Co., Ltd., priority 2005, dated 2011).

melting point	Compound
145 to 147 °C	COCCN(C)c1cc(C(=O)Nc2nc(-c3ccco3)c(C(=O)c3ccccc3)s2)ccn1 [Compound 53, N-[5-Benzoyl-4-(2-furyl)thiazol-2-yl]-2-[N-(2-methoxyethyl)-N-methylamino]pyridine-4-carboxamide]
204 to 206 °C	CC(=O)c1ccc(C(=O)Nc2nc(-c3ccco3)c(C(=O)c3ccccn3)s2)cc1 [Compound 116, 4-Acetyl-N-[4-(2-furyl)-5-(pyridin-2-ylcarbonyl)thiazol-2-yl]benzamide]
208 to 210 °C	O=C(Nc1nc(-c2ccco2)c(C(=O)c2cccs2)s1)c1ccncc1 [Compound 254, N-[4-(2-Furyl)-5-(thiophen-2-ylcarbonyl)thiazol-2-yl]-pyridine-4-carboxamide]
213 to 215 °C	O=C(Nc1nc(-c2ccco2)c(C(=O)C2CCOCC2)s1)c1ccc(F)cc1F [Compound 395, 2,4-Difluoro-N-[4-(2-furyl)-5-(tetrahydropyran-4-ylcarbonyl)thiazol-2-yl]benzamide]
197 to 201 °C	Cc1cccc(C(=O)Nc2nc(-c3ccco3)c(C(=O)C3CCOCC3)s2)c1 [Compound 364, N-[4-(2-Furyl)-5-(tetrahydropyran-4-ylcarbonyl)thiazol-2-yl]-3-methylbenzamide]
231 to 232 °C	O=C(Nc1nc(-c2ccco2)c(C(=O)C2CCOCC2)s1)c1cccs1 [Compound 422, N-[4-(2-Furyl)-5-(tetrahydropyran-4-ylcarbonyl)thiazol-2-yl]thiophene-2-carboxamide]
236 to 238 °C	O=C(Nc1nc(-c2ccco2)c(C(=O)C2CCOCC2)s1)c1ccoc1 [Compound 421, N-[4-(2-Furyl)-5-(tetrahydropyran-4-ylcarbonyl)thiazol-2-yl]furan-3-carboxamide]
265 to 282 °C (dec.)	O=C(Nc1nc(-c2ccco2)c(C(=O)c2ccc(=O)n(Cc3ccccc3)c2)s1)c1ccncc1 [Compound 271, N-[5-(1-Benzyl-2-oxo-1,2-dihydropyridin-5-ylcarbonyl)-4-(2-furyl)thiazol-2-yl]pyridine-4-carboxamide]
178 to 180 °C	O=C(CN1CCC(O)CC1)Nc1nc(-c2ccco2)c(C(=O)C2CCOCC2)s1 [Compound 448, N-[4-(2-Furyl)-5-(tetrahydropyran-4-ylcarbonyl)thiazol-2-yl]-2-(4-hydroxypiperidino)acetamide]
188 to 190 °C	O=C(Nc1nc(-c2ccco2)c(C(=O)C2CCOCC2)s1)c1cccc2c1OCCO2 [Compound 400, N-[4-(2-Furyl)-5-(tetrahydropyran-4-ylcarbonyl)thiazol-2-yl]-1,4-benzodioxane-5-carboxamide]
125 to 160 °C (dec.)	Nc1nc(-c2ccco2)c(C(=O)C2CCC2)s1 [Compound 329, 2-Amino-4-(2-furyl)thiazol-5-yl cyclobutyl ketone]
200 to 205 °C	O=C(Nc1nc(-c2ccco2)c(C(=O)C2CCC2)s1)C1CC1 [Compound 333, N-[5-(Cyclobutylcarbonyl)-4-(2-furyl)thiazol-2-yl]cyclopropanecarboxamide]
243 to 255 °C (dec.)	Cn1ccc(C(=O)c2sc(NC(=O)c3ccncc3)nc2-c2ccco2)cc1=O [Compound 274, N-[4-(2-Furyl)-5-(1-methyl-2-oxo-1,2-dihydropyridin-4-ylcarbonyl)thiazol-2-yl]pyridine-4-carboxamide]
158 to 159 °C	O=C(Nc1nc(-c2ccco2)c(C(=O)c2ccccn2)s1)OC(CF)CF [Compound 163, 2-Fluoro-1-(fluoromethyl)ethyl N-[4-(2-furyl)-5-(pyridin-2-ylcarbonyl)thiazol-2-yl]carbamate]
240 to 241 °C	O=C(c1ccccn1)c1sc(NC(=O)C2CCN(Cc3ccncc3)CC2)nc1-c1ccco1 [Compound 106, N-[4-(2-Furyl)-5-(pyridin-2-ylcarbonyl)thiazol-2-yl]-1-(pyridin-4-ylmethyl)piperidine-4-carboxamide]
195 to 199 °C	CC(C)C(=O)c1sc(N)nc1-c1ccco1 [Compound 299, 2-Amino-4-(2-furyl)thiazol-5-yl isopropyl ketone]

More lines, now with the values behind:

Compound	melting point
O=C(Nc1nc(-c2ccco2)c(C(=O)c2ccnc(N3CCOCC3)c2)s1)c1ccncc1 [Compound 246, N-[4-(2-Furyl)-5-(2-morpholinopyridin-4-ylcarbonyl)thiazol-2-yl]pyridine-4-carboxamide]	270 to 273 °C
CCn1ccc(C(=O)c2sc(NC(=O)c3ccncc3)nc2-c2ccco2)cc1=O [Compound 276, N-[5-(1-Ethyl-2-oxo-1,2-dihydropyridin-4-ylcarbonyl)-4-(2-furyl)thiazol-2-yl]pyridine-4-carboxamide]	277 to 281 °C
O=C(Nc1nc(-c2ccco2)c(C(=O)c2ccncn2)s1)c1ccncc1 [Compound 282, N-[4-(2-Furyl)-5-(pyrimidine-4-ylcarbonyl)thiazol-2-yl]pyridine-4-carboxamide]	> 300 °C
Cc1cccc(C(=O)c2sc(NC(=O)c3ccncc3)nc2-c2ccco2)n1 [Compound 192, N-[4-(2-Furyl)-5-(6-methylpyridin-2-ylcarbonyl)thiazol-2-yl]pyridine-4-carboxamide]	238 to 241 °C
O=C(Nc1nc(-c2ccco2)c(C(=O)c2ccccn2)s1)c1ccnc(N2CCOCC2)c1 [Compound 127, N-[4-(2-Furyl)-5-(pyridin-2-ylcarbonyl)thiazol-2-yl]-2-morpholinopyridine-4-carboxamide]	216 to 217 °C
COc1ccc(C(=O)Nc2nc(-c3ccco3)c(C(=O)C3CCOCC3)s2)c(OC)c1 [Compound 389, N-[4-(2-Furyl)-5-(tetrahydropyran-4-ylcarbonyl)thiazol-2-yl]-2,4-dimethoxybenzamide]	219 to 222 °C
CC1(O)CCN(CC(=O)Nc2nc(-c3ccco3)c(C(=O)C3CCOCC3)s2)CC1 [Compound 451, N-[4-(2-Furyl)-5-(tetrahydropyran-4-ylcarbonyl)thiazol-2-yl]-2-(4-hydroxy-4-methylpiperidino)acetamide]	151 to 153 °C
CC(C)(C)NC(=O)Nc1nc(-c2ccco2)c(C(=O)c2ccccn2)s1 [Compound 167, N-tert-Butyl-N′-[4-(2-furyl)-5-(pyridin-2-ylcarbonyl)thiazol-2-yl]urea]	123 to 124 °C
O=C(Nc1nc(-c2ccco2)c(C(=O)c2cnccn2)s1)c1ccncc1 [Compound 281, N-[4-(2-Furyl)-5-(pyrazin-2-ylcarbonyl)thiazol-2-yl]pyridine-4-carboxamide]	> 300 °C
O=C(Nc1nc(-c2ccco2)c(C(=O)c2ccccn2)s1)c1ccoc1 [Compound 146, N-[4-(2-Furyl)-5-(pyridin-2-ylcarbonyl)thiazol-2-yl]furan-3-carboxamide]	187 to 189 °C
O=C(CN1CCN(c2ncccn2)CC1)Nc1nc(-c2ccco2)c(C(=O)c2ccccn2)s1 [Compound 186, N-[4-(2-Furyl)-5-(pyridin-2-ylcarbonyl)thiazol-2-yl]-2-[4-(2-pyrimidinyl)piperazin-1-yl]acetamide]	199 to 200 °C
O=C(CN1CCN(c2ccccc2)CC1)Nc1nc(-c2ccco2)c(C(=O)c2ccccn2)s1 [Compound 184, N-[4-(2-Furyl)-5-(pyridin-2-ylcarbonyl)thiazol-2-yl]-2-(4-phenylpiperazin-1-yl)acetamide]	203 to 204 °C
O=C(Nc1nc(-c2ccco2)c(C(=O)C2CCCC2)s1)C1CC1 [Compound 339, N-[5-(Cyclopentylcarbonyl)-4-(2-furyl)thiazol-2-yl]cyclopropanecarboxamide]	182 to 187 °C
Cc1ncc(C(=O)Nc2nc(-c3ccco3)c(C(=O)C3CCSCC3)s2)cn1 [Compound 494, N-[4-(2-Furyl)-5-(tetrahydrothiopyran-4-ylcarbonyl)thiazol-2-yl]-2-methylpyrimidine-5-carboxamide]	238 to 240 °C
O=C(Nc1nc(-c2ccco2)c(C(=O)c2ccccn2)s1)c1cc(Cl)nc(Cl)c1 [Compound 124, 2,6-Dichloro-N-[4-(2-furyl)-5-(pyridin-2-ylcarbonyl)thiazol-2-yl]pyridine-4-carboxamide]	254 to 258 °C
O=C(Nc1nc(-c2ccco2)c(C(=O)c2ccn(Cc3ccccc3)c(=O)c2)s1)c1ccncc1 [Compound 278, N-[5-(1-Benzyl-2-oxo-1,2-dihydropyridin-4-ylcarbonyl)-4-(2-furyl)thiazol-2-yl]pyridine-4-carboxamide]	288 to 291 °C
O=C(CN1CCC(N2CCCCC2)CC1)Nc1nc(-c2ccco2)c(C(=O)c2ccccn2)s1 [Compound 178, N-[4-(2-Furyl)-5-(pyridin-2-ylcarbonyl)thiazol-2-yl]-2-(4-piperidinopiperidino)acetamide]	214 to 220 °C (dec.)
CN(C)c1cccc(C(=O)Nc2nc(-c3ccco3)c(C(=O)C3CCOCC3)s2)c1 [Compound 369, 3-(Dimethylamino)-N-[4-(2-furyl)-5-(tetrahydropyran-4-ylcarbonyl)thiazol-2-yl]benzamide]	239 to 243 °C
O=C(Nc1nc(-c2ccco2)c(C(=O)C2CCOCC2)s1)c1ccc(N2CCOCC2)nc1 [Compound 408, N-[4-(2-Furyl)-5-(tetrahydropyran-4-ylcarbonyl)thiazol-2-yl]-2-morpholinopyridine-5-carboxamide]	166 to 170 °C
O=C(Nc1nc(-c2ccco2)c(C(=O)C2CCOCC2)s1)c1ccc2c(c1)OC(F)(F)O2 [Compound 403, 2,2-Difluoro-N-[4-(2-furyl)-5-(tetrahydropyran-4-ylcarbonyl)thiazol-2-yl]-1,3-benzodioxol-5-carboxamide]	124 to 129 °C
COCCN(C)c1cc(C(=O)Nc2nc(-c3ccco3)c(C(=O)c3ccccn3)s2)ccn1 [Compound 125, N-[4-(2-Furyl)-5-(pyridin-2-ylcarbonyl)thiazol-2-yl]-2-[N-(2-methoxyethyl)-N-methylamino]pyridine-4-carboxamide]	114 to 117 °C
O=C(Nc1nc(-c2ccco2)c(C(=O)c2cccnc2)s1)c1ccncc1 [Compound 211, N-[4-(2-Furyl)-5-(pyridin-3-ylcarbonyl)thiazol-2-yl]pyridine-4-carboxamide]	245 to 248 °C
